Assays:
[1] = system: SW1573; assay: Antiproliferative SRB assay (NCI protocol), SW1573; format: cell-based, human; conditions: for GI50: Homo sapiens, SW1573 (non-small cell lung), 48 h drug exposure, SRB, ± SD; for Selectivity index (SI) on tumor cells: CC50 splenocytes / GI50 SW1573
Method: (§1) In vitro antiproliferative activity was evaluated using the protocol of the National Cancer Institute (NCI) after 48 h of drug exposure using the sulforhodamine B (SRB) assay.
(§2) The following human solid tumor cell lines were used in this study: HBL-100 (breast), HeLa (cervix), SW1573 (non-small cell lung), T-47D (breast), A549 (lung), and WiDr (colon). These cell lines were a kind gift from Prof. G. J. Peters (VU Medical Center, Amsterdam, The Netherlands). Cells were maintained in 25 cm^2 culture flasks in RPMI 1640 supplemented with 5% heat-inactivated fetal calf serum and 2 mM L-glutamine in a 37 °C, 5% CO2, 95% humidified air incubator. Exponentially growing cells were trypsinized and resuspended in antibiotic containing medium (100 units penicillin G and 0.1 mg of streptomycin per mL). Single cell suspensions displaying > 97% viability by trypan blue dye exclusion test were subsequently counted. After counting, dilutions were made to give the appropriate cell densities for inoculation onto 96-well microtiter plates. Cells were inoculated in a volume of 100 μL per well at densities of 5000 (WiDr and T-47D), and 2500 (A549, HeLa, SW1573 and HBL-100) cells per well, based on their doubling times.
(§3) Chemosensitivity tests were performed using the SRB assay of the NCI with slight modifications. Briefly, pure compounds were initially dissolved in DMSO at 400 times the desired final maximum test concentration. Control cells were exposed to an equivalent concentration of DMSO (0.25% v/v, negative control). Each agent was tested in triplicates at different dilutions in the range 1–100 μM. Drug treatment started on day 1 after plating. Drug incubation periods were 48 h, after which cells were precipitated with 25 μL of ice-cold 50% (w/v) trichloroacetic acid and fixed for 60 min at 4 °C. Then, the SRB assay was performed. The optical density (OD) of each well was measured at 530 nm, using BioTek’s PowerWave XS Absorbance Microplate Reader. Values were corrected for background OD from wells containing only culture medium. The percentage growth (PG) was calculated with respect to untreated control cells (C) at each level of drug concentrations based on the difference in OD at the start time (T0) and at the end of drug exposure (T), according to NCI formulas. Therefore, if T is greater than or equal to T0, the calculation is 100 × ((T − T0)/(C − T0)). If T is lower than T0, denoting cell death, the calculation is 100 × ((T − T0)/(T0)). The effect is defined as the growth percentage, where 50% growth inhibition (GI50) represents the concentration at which PG is +50. Based on these calculations, a PG value of 0 corresponds to the number of cells present at the beginning of drug exposure, while negative PG values denote net cell death.

[2] = Cytotoxicity on primary cell culture (flow cytometry, PI); format: cell-based; conditions: Balb/c, mouse, primary splenocytes (spleen cells), ± SD, read-out: Cytotoxic activity on spleen cells (CC50)
Method: (§4) The cytotoxicity of the natural sesquiterpenes (1–3) and derivatives (4–19) was determined on primary cell cultures (splenocytes obtained from Balb/c mouse). […] Derivatives of tessaric acid have shown an improvement in CC50 values in comparison with the natural sesquiterpene 1. […] All the derivatives synthesized from alcohol ilicic (compounds 10–19) were more toxic to mammalian cells than the natural compound (3).
(§5) The cytotoxicity of the compounds was evaluated on splenocytes obtained from Balb/c mouse (1.5 × 10^5) and incubated with different drug dilutions (5–200 μg/mL) as previously described. Cell death was determined by flow cytometry using a BD FACSaria II cytometer. Cells incubated only with drug vehicle were used as 100% viability control, and death percentage was calculated according to the following formula: Death%=1−(%PI^−cells)drug−treated/(%PI^−cells)100% viability control × 100
(§6) The concentration capable of causing 50% cell death (CC50) was determined using a non-linear regression approach.

[3] = system: T-47D; assay: Antiproliferative SRB assay (NCI protocol), T-47D; format: cell-based, human; conditions: for Selectivity index (SI) on tumor cells: CC50 splenocytes / GI50 T-47D; for GI50: Homo sapiens, T47D, T-47D (breast), 48 h drug exposure, SRB, ± SD
Method: as §1, §2, §3

[4] = system: Trypanosoma cruzi epimastigotes (RA strain); assay: In vitro anti-Trypanosoma cruzi assay ((3H) thymidine uptake); format: cell-based; conditions: for IC50: epimastigotes (RA strain), ± SD; for Selectivity Index on T. cruzi epimastigotes: CC50 splenocytes / IC50 epimastigotes
Method: Trypanosoma cruzi epimastigotes (RA strain, from discrete typing unit (DTU) VI) were grown in a biphasic medium. Cultures were maintained by weekly passages at 28 °C [18].
The growth inhibition of T. cruzi epimastigotes was evaluated by a (^3H) thymidine uptake assay as previously described. Natural sesquiterpenes and derivatives were evaluated at concentrations ranging from 1.5 to 50 µg/mL. Benznidazole (Active Pharmaceutical Ingredient) was used as positive control (Elea). The percentage of inhibition was calculated as 100 = {((cpm of treated parasites)/(cpm of untreated parasites)) × 100}.
Figure 5 Effect of the natural sesquiterpene tessaric acid (1), ilicic acid (2), and ilicic alcohol (3) and their derivatives on T. cruzi. Epimastigotes (RA strain) were cultured in the presence of the compounds (50–1.5 µg/mL). Determinations were performed by triplicate. The results are expressed as the mean ± SD. (A) Effect of tessaric acid and derivatives on epimastigotes; (B) Effect of ilicic acid and derivatives on epimastigotes; (C) Effect of ilicic alcohol and derivatives on epimastigotes.

[5] = system: HBL-100; assay: Antiproliferative SRB assay (NCI protocol), HBL-100; format: cell-based, human; conditions: for GI50: Homo sapiens, HBL-100 (breast), 48 h drug exposure, SRB, ± SD; for Selectivity index (SI) on tumor cells: CC50 splenocytes / GI50 HBL-100
Method: as §1, §2, §3

[6] = system: A549; assay: Antiproliferative SRB assay (NCI protocol), A549; format: cell-based, human; conditions: for Selectivity index (SI) on tumor cells: CC50 splenocytes / GI50 A549; for GI50: Homo sapiens, A549 (lung), 48 h drug exposure, SRB, ± SD
Method: as §1, §2, §3

[7] = system: HeLa, T-47D, WiDr, A549, HBL-100, and SW1573 cell lines; assay: Antiproliferative SRB assay, whole panel of human solid tumor cell lines; format: cell-based; conditions: for GI50: Homo sapiens, minimal to maximal GI50 across the cell lines tested, 48 h, SRB, read-out: GI50 values, range over all cell lines tested
Method: as §1, §2, §3

[8] = system: HeLa; assay: Antiproliferative SRB assay (NCI protocol), HeLa; format: cell-based, human; conditions: for Selectivity index (SI) on tumor cells: CC50 splenocytes / GI50 HeLa; for GI50: Homo sapiens, HeLa (cervix), 48 h drug exposure, SRB, ± SD
Method: as §1, §2, §3

[9] = system: WiDr; assay: Antiproliferative SRB assay (NCI protocol), WiDr; format: cell-based, human; conditions: for GI50: Homo sapiens, WiDr (colon), 48 h drug exposure, SRB, ± SD; for Selectivity index (SI) on tumor cells: CC50 splenocytes / GI50 WiDr
Method: as §1, §2, §3

[10] = system: splenocytes obtained from Balb/c mouse; assay: Cytotoxicity on primary cell culture (flow cytometry, PI); format: cell-based; conditions: ± SD, read-out: Cytotoxic activity on spleen cells (CC50)
Method: as §4, §5, §6

Row | SMILES | IC50 ([4]; Trypanosoma cruzi) | GI50 [7] | GI50 [1] | CC50 [2] | Selectivity index (SI) on tumor cells [3] | GI50 [3] | GI50 [5] | Selectivity index (SI) on tumor cells [6] | GI50 [6] | Selectivity index (SI) on tumor cells [8] | GI50 [8] | GI50 [9] | Selectivity index (SI) on tumor cells [1] | Selectivity index (SI) on tumor cells [5] | Selectivity index (SI) on tumor cells [9] | Selectivity Index on T. cruzi epimastigotes [4] | also measured
1 | C=C(C(=O)N(c1ccccc1)C(C)(C)C(=O)NC1CCCCC1)C1CCC2(C)CCCC(C)(O)C2C1 (centres unmarked) [Compound 14] | > 101 µM | 17 to 64 µM | 27 µM | > 405 µM | >17 | 23 µM | 20 µM | >18.4 | 22 µM | >24 | 17 µM | 20 µM | – | – | – | – | Selectivity index (IS) values, over the tumor cell lines evaluated ([7]; CC50 splenocytes / GI50 tumor cells, across cell lines): greater than 15
2 | C=C(C(=O)O)[C@@H]1CCC2=CC(=O)C[C@H](C)[C@@]2(C)C1 [Compound 1, tessaric acid] | > 201 µM | – | > 100 µM | > 329 µM | – | > 100 µM | > 100 µM | – | – | – | > 100 µM | > 100 µM | – | – | – | – | CC50 [10]: 329 µM; Trypanocidal activity (in words) ([4]; T. cruzi): nor trypanocidal activity; Antiproliferative activity (in words) ([7]; solid tumor cell lines evaluated): did not show antiproliferative activity
3 | C=C(C(=O)N(c1ccccc1)C(C)(C)C(=O)NCc1ccccc1)C1CCC2(C)CCCC(C)(O)C2C1 (centres unmarked) [Compound 12] | 8 µM | 17 to 64 µM | 27 µM | 64.3 µM | 3.2 | 20 µM | 20 µM | 2.9 | 22 µM | 3.8 | 17 µM | 24 µM | 2.4 | 3.2 | 2.7 | 8.0 | –
4 | C=C(C(=O)N(c1ccccc1)C(C)(C)C(=O)NC1CCCCC1)[C@@H]1CCC2=CC(=O)C[C@H](C)[C@@]2(C)C1 [Compound 8] | 63.2 µM | 17 to 64 µM | 30 µM | 19.8 µM | 0.7 | 27 µM | 37 µM | 0.7 | 27 µM | 0.6 | 31 µM | 30 µM | 0.7 | 0.5 | 0.7 | 0.3 | –

More lines, main results first:

Row | IC50 ([4]; Trypanosoma cruzi) | GI50 [7] | SMILES | GI50 [1] | CC50 [2] | Selectivity index (SI) on tumor cells [3] | GI50 [3] | GI50 [5] | Selectivity index (SI) on tumor cells [6] | GI50 [6] | Selectivity index (SI) on tumor cells [8] | GI50 [8] | GI50 [9] | Selectivity index (SI) on tumor cells [1] | Selectivity index (SI) on tumor cells [5] | Selectivity index (SI) on tumor cells [9] | Selectivity Index on T. cruzi epimastigotes [4] | also measured
5 | > 100 µM | 17 to 64 µM | C=C(C(=O)N(c1ccccc1)C(C)(C)C(=O)NCc1ccccc1)[C@@H]1CCC2=CC(=O)C[C@H](C)[C@@]2(C)C1 [Compound 6] | 40 µM | 104 µM | 3.5 | 30 µM | 61 µM | 3.1 | 33 µM | 2.9 | 36 µM | 44 µM | 2.6 | 1.7 | 2.4 | – | –
6 | 19.6 µM | 17 to 64 µM | C=C(C(=O)N(c1ccccc1)C(C)(C)C(=O)NC(C)(C)C)C1CCC2(C)CCCC(C)(O)C2C1 (centres unmarked) [Compound 10] | 50 µM | 78.2 µM | 2.2 | 36 µM | 64 µM | 2.5 | 31 µM | 2.1 | 37 µM | 45 µM | 1.6 | 1.2 | 1.7 | 4.0 | –
7 | 45.1 µM | 17 to 64 µM | C=C(C(=O)N(Cc1ccccc1)C(C)(C)C(=O)NC1CCCCC1)[C@@H]1CCC2=CC(=O)C[C@H](C)[C@@]2(C)C1 [Compound 9] | 30 µM | 76.5 µM | 3.6 | 21 µM | 47 µM | 2.7 | 28 µM | 3.2 | 24 µM | 39 µM | 2.6 | 1.6 | 2.0 | 1.7 | –
8 | 9.3 µM | 17 to 64 µM | C=C(C(=O)N(Cc1ccccc1)C(C)(C)C(=O)NCc1ccccc1)[C@@H]1CCC2=CC(=O)C[C@H](C)[C@@]2(C)C1 [Compound 7] | 30 µM | 38.1 µM | 1.7 | 22 µM | 41 µM | 1.4 | 27 µM | 2.0 | 19 µM | 37 µM | 1.3 | 0.9 | 1.0 | 8.0 | IC50 [4]: 4.7 µM
